Assay results: patent publication US8133893B2, “Trazodone and trazodone hydrochloride in purified form” (Aziende Chimiche Riunite Angelini Francesco A.C.R.A.F. …, priority 2007, dated 2012)
Several values for one entry are separate records, joined by “and”; a condition that tells them apart may be missing. Equal entries are not always repeated.

Tests used:
[1] = as reported in TOXNET, National Library of Medicine; cited from earlier work
[2] = test system: Salmonella typhimurium strain TA1535; assay: bacterial reverse mutation test (standard plate incorporation assay); assay type: cell-based
Protocol: The genotoxic activity of N-(3-chlorophenyl)-N′-(3-chloropropyl)-piperazine has been assessed on histidine-dependent auxotrophic mutants of Salmonella typhimurium strains TA1535, TA1537, TA 98 and TA100, and on tryptophan-dependent mutants of Escherichia coli strain WP2 uvrA (pKM101), exposed to a solution of N-(3-chlorophenyl)-N′-(3-chloropropyl)-piperazine in dimethylsulphoxide (DMSO) and using DMSO as negative control. Two independent mutation tests were performed, both in the presence and absence of a liver microsomal fraction (S9 mix) of rat treated with phenobarbital and 5,6-benzoflavone. Tests were standard plate incorporation assays and performed according to the current regulatory guidelines. A substantial increase in reversion to prototrophy was obtained on strain TA1535 in the presence of S9 mix. In the two assays the increase was concentration related and reached, following exposure to 1500 μg per plate of N-(3-chlorophenyl)-N′-(3-chloropropyl)-piperazine, 6.4 and 5.1 times the control value.

| Compound | genotoxicity [1] | genotoxic activity (conclusion) ([2]; bacterial system, following metabolic activation (S9 mix)) | increase in reversion to prototrophy ([2]; strain TA1535, in the presence of S9 mix (rat liver microsomal fraction), 1500 μg per plate, two independent assays, DMSO negative control) |
| --- | --- | --- | --- |
| 2,2-Dichloroethylamine | known genotoxic substances |  |  |
| ClCCCN1CCN(c2cccc(Cl)c2)CC1 [N-(3-chlorophenyl)-N′-(3-chloropropyl)-piperazine] |  | exhibited genotoxic activity | 6.4 times the control value and 5.1 times the control value |
